What was measured:
[1] = molecular target: T1, GABA-B (Homo sapiens, UniProt Q9UBS5); assay: NovaScreen assay; assay type: binding; settings: read-out: Inhibition, 10 μM XL-647
T1 construct: NovaScreen

[2] = molecular target: T2, p-Y-HER2/ErbB2 (Homo sapiens, UniProt P04626); assay: In vivo receptor phosphorylation, BT474 xenografts; design: species or system mouse; settings: Phospho
T2 construct: endogenous in cells; host or cells: BT474 tumour xenografts in mice (per the earlier reading)

[3] = molecular target: T3, Histamine, H3 (Homo sapiens, UniProt Q9Y5N1); assay: NovaScreen assay; assay type: binding; settings: read-out: Inhibition, 10 μM XL-647
T3 construct: NovaScreen

[4] = tested on: Calcium Channel, Type L (Dihydropyridine Site); assay: NovaScreen assay; assay type: binding
[5] = tested on: HT-29 human tumor xenograft; assay: HT-29 xenograft, tumor growth; assay type: in vivo; settings: Mus musculus
Procedure: The response of tumors to treatment was determined by comparing the mean tumor weight of the treatment group with the appropriate control group. Percentage inhibition of tumor growth was determined with the following formula: Percentage inhibition=100×[1−(Xf−Xo)/(Yf−Yo)], where Xf and Yf are the mean tumor weights of the treatment and control groups, respectively, on day f, and Xo and Yo are the mean tumor weights of treatment and control groups respectively, on day zero (staged tumor weights after grouping)

[6] = molecular target: T4, Cholecystokinin, CCK1 (CCKA) (Homo sapiens, UniProt P32238); assay: NovaScreen assay; assay type: binding; settings: read-out: Inhibition, 10 μM XL-647
T4 construct: NovaScreen

[7] = molecular target: PKCα (Homo sapiens, UniProt P17252); assay: In vitro kinase inhibition screen; assay type: biochemical
Procedure: (§1) Further screening was performed using the biochemical assay methods of Example 2. Additional description of the components and concentrations are summarized in Table 8, Table 9, and Table 10, below.

[8] = molecular target: JNK1α (Homo sapiens, UniProt P45983); assay: In vitro kinase inhibition screen; assay type: biochemical
Procedure: as §1

[9] = molecular target: CDK6 (Homo sapiens, UniProt Q00534); assay: In vitro kinase inhibition screen; assay type: biochemical
Procedure: as §1

[10] = molecular target: Blk (Homo sapiens, UniProt P51451); assay: In vitro kinase inhibition screen; assay type: biochemical
Procedure: as §1

[11] = molecular target: SAPK3 (Homo sapiens, UniProt P53778); assay: In vitro kinase inhibition screen; assay type: biochemical
Procedure: as §1

[12] = molecular target: Syk (Homo sapiens, UniProt P43405); assay: In vitro kinase inhibition screen; assay type: biochemical
Procedure: as §1

[13] = molecular target: Fes (Homo sapiens, UniProt P07332); assay: In vitro kinase inhibition screen; assay type: biochemical
Procedure: as §1

[14] = molecular target: Lyn (Homo sapiens, UniProt P07948); assay: In vitro kinase inhibition screen; assay type: biochemical
Procedure: as §1

[15] = molecular target: ROCK II (Homo sapiens, UniProt O75116); assay: In vitro kinase inhibition screen; assay type: biochemical
Procedure: as §1

[16] = molecular target: Rsk1 (Homo sapiens, UniProt Q15418); assay: In vitro kinase inhibition screen; assay type: biochemical
Procedure: as §1

[17] = molecular target: PKBβ (Homo sapiens, UniProt P31751); assay: In vitro kinase inhibition screen; assay type: biochemical
Procedure: as §1

[18] = molecular target: MAPKAP2 (Homo sapiens, UniProt P49137); assay: In vitro kinase inhibition screen; assay type: biochemical
Procedure: as §1

[19] = molecular target: JNK3α (Homo sapiens, UniProt P53779); assay: In vitro kinase inhibition screen; assay type: biochemical
Procedure: as §1

[20] = molecular target: PKBα (Homo sapiens, UniProt P31749); assay: In vitro kinase inhibition screen; assay type: biochemical
Procedure: as §1

[21] = molecular target: CDK1 (Homo sapiens, UniProt P06493); assay: In vitro kinase inhibition screen; assay type: biochemical
Procedure: as §1

[22] = molecular target: c-Raf (Homo sapiens, UniProt P04049); assay: In vitro kinase inhibition screen; assay type: biochemical
Procedure: as §1

[23] = molecular target: CDK5 (Homo sapiens, UniProt Q00535); assay: In vitro kinase inhibition screen; assay type: biochemical
Procedure: as §1

[24] = molecular target: PAK2 (Homo sapiens, UniProt Q13177); assay: In vitro kinase inhibition screen; assay type: biochemical
Procedure: as §1

[25] = molecular target: SGK (Homo sapiens, UniProt O00141); assay: In vitro kinase inhibition screen; assay type: biochemical
Procedure: as §1

[26] = molecular target: AMPK; assay: In vitro kinase inhibition screen; assay type: biochemical
Procedure: as §1

[27] = molecular target: PDGFRβ (Homo sapiens, UniProt P09619); assay: In vitro kinase inhibition screen; assay type: biochemical
Procedure: as §1

[28] = molecular target: MKK6 (Homo sapiens, UniProt P52564); assay: In vitro kinase inhibition screen; assay type: biochemical
Procedure: as §1

[29] = molecular target: CSK (Homo sapiens, UniProt P41240); assay: In vitro kinase inhibition screen; assay type: biochemical
Procedure: as §1

[30] = molecular target: Yes (Homo sapiens, UniProt P07947); assay: In vitro kinase inhibition screen; assay type: biochemical
Procedure: as §1

[31] = molecular target: PDGFR-α (Homo sapiens, UniProt P16234); assay: In vitro kinase inhibition screen; assay type: biochemical
Procedure: as §1

[32] = molecular target: PKC-γ (Homo sapiens, UniProt P05129); assay: In vitro kinase inhibition screen; assay type: biochemical
Procedure: as §1

T2 sequence (P04626 23-1255): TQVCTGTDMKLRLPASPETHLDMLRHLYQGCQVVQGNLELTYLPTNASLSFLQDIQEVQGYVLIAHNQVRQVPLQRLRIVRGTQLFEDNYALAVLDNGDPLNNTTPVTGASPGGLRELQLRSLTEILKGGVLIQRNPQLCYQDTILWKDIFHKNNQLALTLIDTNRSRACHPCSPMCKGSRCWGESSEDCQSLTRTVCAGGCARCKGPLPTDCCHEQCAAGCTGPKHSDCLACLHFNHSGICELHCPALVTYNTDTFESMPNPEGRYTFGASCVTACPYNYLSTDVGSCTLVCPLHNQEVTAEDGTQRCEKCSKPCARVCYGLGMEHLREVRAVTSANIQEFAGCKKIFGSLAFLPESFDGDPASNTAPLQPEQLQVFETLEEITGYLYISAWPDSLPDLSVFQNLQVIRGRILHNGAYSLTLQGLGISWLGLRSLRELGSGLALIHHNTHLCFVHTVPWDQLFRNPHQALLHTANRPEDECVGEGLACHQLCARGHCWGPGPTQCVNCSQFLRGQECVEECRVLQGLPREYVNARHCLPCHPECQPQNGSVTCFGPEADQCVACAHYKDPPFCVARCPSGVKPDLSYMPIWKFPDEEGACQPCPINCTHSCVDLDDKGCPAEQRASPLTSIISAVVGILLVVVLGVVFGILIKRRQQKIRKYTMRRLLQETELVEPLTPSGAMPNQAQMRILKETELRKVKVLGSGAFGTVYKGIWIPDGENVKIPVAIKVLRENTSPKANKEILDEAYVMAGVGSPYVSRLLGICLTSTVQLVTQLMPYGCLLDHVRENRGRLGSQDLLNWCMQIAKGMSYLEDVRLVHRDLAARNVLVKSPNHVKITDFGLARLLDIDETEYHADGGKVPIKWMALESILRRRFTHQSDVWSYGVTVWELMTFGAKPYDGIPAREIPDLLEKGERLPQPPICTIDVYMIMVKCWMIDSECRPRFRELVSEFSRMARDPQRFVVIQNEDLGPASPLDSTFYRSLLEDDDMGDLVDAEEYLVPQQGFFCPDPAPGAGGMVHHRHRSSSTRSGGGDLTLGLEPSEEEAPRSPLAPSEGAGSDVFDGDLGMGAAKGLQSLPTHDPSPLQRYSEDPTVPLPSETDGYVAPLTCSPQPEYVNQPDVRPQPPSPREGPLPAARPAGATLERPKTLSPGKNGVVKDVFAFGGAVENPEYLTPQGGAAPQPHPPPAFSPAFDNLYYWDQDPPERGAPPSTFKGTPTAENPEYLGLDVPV
PDGFRβ, sequence (P09619 33-1106, species assumed): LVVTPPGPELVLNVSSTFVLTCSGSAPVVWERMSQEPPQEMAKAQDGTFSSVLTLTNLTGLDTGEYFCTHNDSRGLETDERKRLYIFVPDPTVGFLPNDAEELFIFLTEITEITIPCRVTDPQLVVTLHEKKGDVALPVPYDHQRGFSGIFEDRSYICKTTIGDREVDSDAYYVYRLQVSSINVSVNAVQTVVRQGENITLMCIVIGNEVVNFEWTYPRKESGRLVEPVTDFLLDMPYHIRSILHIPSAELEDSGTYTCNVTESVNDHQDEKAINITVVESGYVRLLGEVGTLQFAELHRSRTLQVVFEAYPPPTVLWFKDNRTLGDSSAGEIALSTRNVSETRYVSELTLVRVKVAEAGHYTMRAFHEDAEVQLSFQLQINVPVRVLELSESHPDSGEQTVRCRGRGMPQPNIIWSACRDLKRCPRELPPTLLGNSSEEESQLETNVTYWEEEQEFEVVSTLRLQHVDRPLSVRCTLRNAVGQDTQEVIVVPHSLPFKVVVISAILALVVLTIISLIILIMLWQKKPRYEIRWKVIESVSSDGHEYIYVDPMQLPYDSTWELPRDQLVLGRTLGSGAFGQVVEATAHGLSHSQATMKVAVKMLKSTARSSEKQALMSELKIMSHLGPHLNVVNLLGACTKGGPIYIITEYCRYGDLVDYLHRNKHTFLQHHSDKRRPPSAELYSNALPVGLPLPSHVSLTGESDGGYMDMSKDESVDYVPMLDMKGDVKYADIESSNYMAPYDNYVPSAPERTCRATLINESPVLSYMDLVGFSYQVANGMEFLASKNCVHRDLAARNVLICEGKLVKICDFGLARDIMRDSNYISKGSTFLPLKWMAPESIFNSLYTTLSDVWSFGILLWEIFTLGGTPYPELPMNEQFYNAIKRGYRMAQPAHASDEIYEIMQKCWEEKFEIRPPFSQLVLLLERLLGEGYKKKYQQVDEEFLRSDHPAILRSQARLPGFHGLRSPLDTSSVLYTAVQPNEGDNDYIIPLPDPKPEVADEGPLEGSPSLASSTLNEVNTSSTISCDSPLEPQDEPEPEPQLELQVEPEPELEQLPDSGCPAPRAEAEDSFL
Lyn, sequence (P07948 whole entry, species assumed): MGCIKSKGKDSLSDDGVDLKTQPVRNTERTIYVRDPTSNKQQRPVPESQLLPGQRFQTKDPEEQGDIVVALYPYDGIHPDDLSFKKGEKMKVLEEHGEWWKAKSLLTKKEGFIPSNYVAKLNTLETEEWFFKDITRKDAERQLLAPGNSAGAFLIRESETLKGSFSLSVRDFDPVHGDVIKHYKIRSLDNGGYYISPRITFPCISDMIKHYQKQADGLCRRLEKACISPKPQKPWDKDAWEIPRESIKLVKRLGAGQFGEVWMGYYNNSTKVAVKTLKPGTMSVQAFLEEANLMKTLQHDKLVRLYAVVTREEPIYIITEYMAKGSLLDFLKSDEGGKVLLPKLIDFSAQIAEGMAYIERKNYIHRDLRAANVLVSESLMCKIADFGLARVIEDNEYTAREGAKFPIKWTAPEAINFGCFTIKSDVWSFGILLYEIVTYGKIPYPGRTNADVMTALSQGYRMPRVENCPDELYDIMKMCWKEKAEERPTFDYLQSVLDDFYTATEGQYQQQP
Fes, sequence (P07332 whole entry, species assumed): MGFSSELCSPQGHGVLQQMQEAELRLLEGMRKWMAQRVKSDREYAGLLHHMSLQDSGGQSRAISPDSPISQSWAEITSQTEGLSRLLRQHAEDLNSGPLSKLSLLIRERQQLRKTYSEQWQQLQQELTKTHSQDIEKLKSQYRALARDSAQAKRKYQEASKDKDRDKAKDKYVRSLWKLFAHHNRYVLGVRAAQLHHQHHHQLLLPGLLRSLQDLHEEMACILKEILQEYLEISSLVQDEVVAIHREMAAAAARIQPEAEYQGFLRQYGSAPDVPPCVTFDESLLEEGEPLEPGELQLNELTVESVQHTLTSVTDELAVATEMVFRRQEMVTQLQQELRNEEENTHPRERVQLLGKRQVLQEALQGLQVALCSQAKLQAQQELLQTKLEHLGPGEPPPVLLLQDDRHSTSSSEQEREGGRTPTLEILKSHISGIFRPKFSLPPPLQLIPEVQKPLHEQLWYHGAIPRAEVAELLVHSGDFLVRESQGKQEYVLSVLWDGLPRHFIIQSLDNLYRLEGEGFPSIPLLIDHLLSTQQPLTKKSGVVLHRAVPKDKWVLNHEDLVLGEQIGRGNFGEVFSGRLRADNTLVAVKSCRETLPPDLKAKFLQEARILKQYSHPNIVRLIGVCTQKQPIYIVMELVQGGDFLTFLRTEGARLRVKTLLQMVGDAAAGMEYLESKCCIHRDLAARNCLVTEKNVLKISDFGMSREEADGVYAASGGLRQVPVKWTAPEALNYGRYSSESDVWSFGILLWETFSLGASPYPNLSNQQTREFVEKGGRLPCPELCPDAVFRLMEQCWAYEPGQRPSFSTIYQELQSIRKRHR
PDGFR-α, sequence (P16234 24-1089, species assumed): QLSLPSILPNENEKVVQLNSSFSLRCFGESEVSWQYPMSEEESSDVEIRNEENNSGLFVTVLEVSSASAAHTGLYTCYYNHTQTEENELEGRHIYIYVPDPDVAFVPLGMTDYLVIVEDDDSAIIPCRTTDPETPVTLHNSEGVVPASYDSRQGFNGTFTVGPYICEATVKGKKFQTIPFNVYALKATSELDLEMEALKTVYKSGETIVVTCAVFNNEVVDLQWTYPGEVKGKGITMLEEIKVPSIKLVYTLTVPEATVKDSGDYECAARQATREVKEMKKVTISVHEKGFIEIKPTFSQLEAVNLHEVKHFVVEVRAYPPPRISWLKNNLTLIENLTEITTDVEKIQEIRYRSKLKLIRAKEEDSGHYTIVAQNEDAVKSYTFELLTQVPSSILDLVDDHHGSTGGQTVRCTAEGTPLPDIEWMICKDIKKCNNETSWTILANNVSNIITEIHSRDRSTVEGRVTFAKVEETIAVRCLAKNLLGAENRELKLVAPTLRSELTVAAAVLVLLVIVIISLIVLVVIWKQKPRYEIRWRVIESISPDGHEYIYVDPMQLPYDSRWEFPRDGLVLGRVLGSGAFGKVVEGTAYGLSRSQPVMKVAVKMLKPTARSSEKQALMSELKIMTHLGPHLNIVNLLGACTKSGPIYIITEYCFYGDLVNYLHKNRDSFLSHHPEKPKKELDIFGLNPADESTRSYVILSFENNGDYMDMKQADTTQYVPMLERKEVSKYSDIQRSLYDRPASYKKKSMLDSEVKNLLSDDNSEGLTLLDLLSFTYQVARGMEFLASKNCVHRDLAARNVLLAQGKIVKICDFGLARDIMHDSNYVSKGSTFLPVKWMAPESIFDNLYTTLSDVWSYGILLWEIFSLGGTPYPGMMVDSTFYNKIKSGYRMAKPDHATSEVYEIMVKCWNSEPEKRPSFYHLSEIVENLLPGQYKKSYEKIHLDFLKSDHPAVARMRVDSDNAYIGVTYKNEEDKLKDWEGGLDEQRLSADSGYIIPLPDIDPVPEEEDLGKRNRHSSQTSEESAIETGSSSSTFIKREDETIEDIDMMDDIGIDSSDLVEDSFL
MKK6, sequence (P52564 whole entry, species assumed): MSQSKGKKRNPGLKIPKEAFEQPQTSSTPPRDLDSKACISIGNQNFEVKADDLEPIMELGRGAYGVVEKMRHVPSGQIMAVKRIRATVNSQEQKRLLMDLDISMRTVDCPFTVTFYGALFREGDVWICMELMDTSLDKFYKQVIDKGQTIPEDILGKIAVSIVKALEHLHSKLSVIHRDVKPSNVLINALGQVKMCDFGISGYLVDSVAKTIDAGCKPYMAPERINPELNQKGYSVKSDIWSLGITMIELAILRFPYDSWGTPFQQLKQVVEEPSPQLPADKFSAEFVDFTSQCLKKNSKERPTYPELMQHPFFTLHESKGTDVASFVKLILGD

COc1cc2c(Nc3ccc(Cl)c(Cl)c3F)ncnc2cc1OC[C@@H]1C[C@@H]2CN(C)C[C@@H]2C1 [XL-647, N-(3,4-dichloro-2-fluorophenyl)-7-({[(3aR,5r,6aS)-2-methyloctahydrocyclopenta[c]pyrrol-5-yl]methyl}oxy)-6-(methyloxy)quinazolin-4-amine] was tested, and the inhibition at 10 µM [1] was -1.19%, the “Single Dose Duration of Action (100 mg/kg, >50% inhibition)” value [2] was over 72 h and the IC50 ([2]; in vivo, read-out: Estimated IC50 (plasma concentration)) was 3600 nM. For the same molecule, the inhibition at 10 µM [3] was 38.6%, the “Inhibition, 10 μM XL-647” value [4] was 46.77% and the ED50 ([5]; HT-29, qd × 14) was 20.2 mg/kg. It also gave an ED50 ([5]; HT-29, qd × 28) of 16 mg/kg, an inhibition at 10 µM [6] of 47.5% and an IC50 [7] of over 10000 nM. The IC50 [8] was over 1000 nM, the IC50 [9] was over 1000 nM and the IC50 [10] was 15 nM. For the same molecule, the IC50 [11] was over 1000 nM, the IC50 [12] was over 1000 nM and the IC50 [13] was 474 nM. For the same molecule, the IC50 [14] was 2 nM, the IC50 [15] was over 1000 nM and the IC50 [16] was over 1000 nM. The IC50 [17] was over 10000 nM, the IC50 [18] was over 10000 nM and the IC50 [19] was over 1000 nM. The IC50 [20] was over 10000 nM, the IC50 [21] was over 1000 nM and the IC50 [22] was over 1000 nM. It also gave an IC50 [23] of over 1000 nM, an IC50 [24] of over 1000 nM and an IC50 [25] of over 10000 nM. The IC50 [26] was over 1000 nM, the IC50 [27] was 346 ± 37 nM and the IC50 [28] was over 1000 nM. The IC50 [29] was 402 nM, the IC50 [30] was 1.1 nM and the IC50 [31] was 64.4 ± 7.2 nM. It also gave an IC50 [32] of over 10000 nM.
